Values after ≈ are worked out from the molar mass of the structure shown. Active and inactive are the calls of the source. The rule behind the calls is not given here.
Experiments:
Assay type in all cases: functional
Staphylococcus aureus [1] = assay: Antibacterial activity against methicillin-resistant Staphylococcus aureus clinical isolates by CLSi method
Staphylococcus aureus [2] = assay: Antibacterial activity against methicillin-resistant Staphylococcus aureus clinical isolates assessed as susceptible isolates by CLSI method
Staphylococcus aureus [3] = assay: Antibacterial activity against methicillin-resistant Staphylococcus aureus clinical isolates assessed as resistant isolates by CLSI method
Staphylococcus aureus [4] = assay: Antibacterial activity against methicillin-resistant Staphylococcus aureus clinical isolates assessed as susceptible isolates by EUCAST method
Staphylococcus aureus [5] = assay: Antibacterial activity against methicillin-resistant Staphylococcus aureus clinical isolates assessed as resistant isolates by EUCAST method
Staphylococcus aureus [6] = assay: Antibacterial activity against methicillin-susceptible Staphylococcus aureus clinical isolates by CLSi method
Staphylococcus aureus [7] = assay: Antibacterial activity against methicillin-susceptible Staphylococcus aureus clinical isolates assessed as susceptible isolates by CLSI method
Staphylococcus aureus [8] = assay: Antibacterial activity against methicillin-susceptible Staphylococcus aureus clinical isolates assessed as resistant isolates by CLSI method
Staphylococcus aureus [9] = assay: Antibacterial activity against methicillin-susceptible Staphylococcus aureus clinical isolates assessed as susceptible isolates by EUCAST method
Staphylococcus aureus [10] = assay: Antibacterial activity against methicillin-susceptible Staphylococcus aureus clinical isolates assessed as resistant isolates by EUCAST method
Staphylococcus aureus [11] = assay: Antibacterial activity against methicillin-resistant Staphylococcus aureus clinical isolates assessed as susceptibility breakpoint

Compound | MIC50 (Staphylococcus aureus [1]) [µg/mL] | MIC90 (Staphylococcus aureus [1]) [µg/mL] | Activity (Staphylococcus aureus [2]) [%] | Activity (Staphylococcus aureus [3]) | Activity (Staphylococcus aureus [4]) [%] | Activity (Staphylococcus aureus [5]) | MIC50 (Staphylococcus aureus [6]) [µg/mL] | MIC90 (Staphylococcus aureus [6]) [µg/mL] | Activity (Staphylococcus aureus [7]) [%] | Activity (Staphylococcus aureus [8]) | Activity (Staphylococcus aureus [9]) [%] | Activity (Staphylococcus aureus [10]) | Activity (Staphylococcus aureus [11])
CN[C@H](CC(C)C)C(=O)N[C@H]1C(=O)N[C@@H](CC(N)=O)C(=O)N[C@H]2C(=O)N[C@H]3C(=O)N[C@H](C(=O)N[C@H](C(=O)O)c4cc(O)cc(O)c4-c4cc3ccc4O)[C@H](O)c3ccc(c(Cl)c3)Oc3cc2cc(c3O[C@@H]2O[C@H](CO)[C@@H](O)[C@H](O)[C@H]2O[C@H]2C[C@](C)(N)[C@H](O)[C@H](C)O2)Oc2ccc(cc2Cl)[C@H]1O [VANCOMYCIN] | 1 (≈ 0.69 µM) | 1 (≈ 0.69 µM) | 99.9 | 0% | 99.9 | 0.1% | 1 (≈ 0.69 µM) | 1 (≈ 0.69 µM) | 100 | 0% | 100 | 0% | –
CCCCCCCCCCNCCN[C@@]1(C)C[C@H](O[C@H]2[C@H](Oc3c4cc5cc3Oc3ccc(cc3Cl)[C@@H](O)[C@@H](NC(=O)[C@@H](CC(C)C)NC)C(=O)N[C@@H](CC(N)=O)C(=O)N[C@H]5C(=O)N[C@H]3C(=O)N[C@H](C(=O)N[C@H](C(=O)O)c5cc(O)c(CNCP(=O)(O)O)c(O)c5-c5cc3ccc5O)[C@H](O)c3ccc(c(Cl)c3)O4)O[C@H](CO)[C@@H](O)[C@@H]2O)O[C@@H](C)[C@H]1O [TELAVANCIN] | 0.12 (≈ 0.0684 µM) | 0.25 (≈ 0.142 µM) | – | inactive | – | inactive | 0.12 (≈ 0.0684 µM) | 0.25 (≈ 0.142 µM) | 100 | inactive | 100 | inactive | <=1 ug ml-1
C[C@H]1COc2c(N3CCN(C)CC3)c(F)cc3c(=O)c(C(=O)O)cn1c23.C[C@H]1COc2c(N3CCN(C)CC3)c(F)cc3c(=O)c(C(=O)O)cn1c23.O [LEVOFLOXACIN] | > 4 | > 4 | 21.6 | 77.9% | 21.6 | 77.9% | ≤ 0.5 | ≤ 0.5 | 92.9 | 6.8% | 92.9 | 6.8% | –
CN(C)[C@@H]1C(O)=C(C(N)=O)C(=O)[C@@]2(O)C(O)=C3C(=O)c4c(O)cccc4[C@@](C)(O)[C@H]3C[C@@H]12 [TETRACYCLINE] | – | – | 80.7 | 19.1% | 80.1 | 19.9% | ≤ 1 | ≤ 1 | 94.6 | 5% | 94.2 | 5.8% | –
CC(=O)NC[C@H]1CN(c2ccc(N3CCOCC3)c(F)c2)C(=O)O1 [LINEZOLID] | 1 (≈ 2.96 µM) | 2 (≈ 5.93 µM) | – | inactive | – | <0.1% | 2 (≈ 5.93 µM) | 2 (≈ 5.93 µM) | 100 | inactive | 100 | 0% | –
CC[C@H]1OC(=O)[C@H](C)[C@@H](O[C@H]2C[C@@](C)(OC)[C@@H](O)[C@H](C)O2)[C@H](C)[C@@H](O[C@@H]2O[C@H](C)C[C@H](N(C)C)[C@H]2O)[C@](C)(O)C[C@@H](C)C(=O)[C@H](C)[C@@H](O)[C@]1(C)O [ERYTHROMYCIN] | > 4 | – | 13.9 | 85.6% | 14.2 | 85.6% | ≤ 0.25 | > 4 | 74.3 | 25.2% | 74.5 | 25.2% | –
GENTAMICIN | < 1 | > 8 | 77.9 | 21.1% | 77.1 | 22.9% | < 1 | < 1 | 96.6 | 3.1% | 96.4 | 3.6% | –
CCCCCCCCCC(=O)N[C@@H](Cc1c[nH]c2ccccc12)C(=O)N[C@H](CC(N)=O)C(=O)N[C@@H](CC(=O)O)C(=O)N[C@@H]1C(=O)NCC(=O)N[C@@H](CCCN)C(=O)N[C@@H](CC(=O)O)C(=O)N[C@H](C)C(=O)N[C@@H](CC(=O)O)C(=O)NCC(=O)N[C@H](CO)C(=O)N[C@@H]([C@H](C)CC(=O)O)C(=O)N[C@@H](CC(=O)c2ccccc2N)C(=O)O[C@@H]1C | 0.25 (≈ 0.154 µM) | 0.5 (≈ 0.309 µM) | 99.9 | inactive | 99.9 | 0.1% | 0.25 (≈ 0.154 µM) | 0.5 (≈ 0.309 µM) | 100 | inactive | 100 | 0% | –
CCC[C@@H]1C[C@@H](C(=O)N[C@@H]([C@H]2O[C@H](SC)[C@H](O)[C@@H](O)[C@H]2O)[C@H](C)Cl)N(C)C1 [CLINDAMYCIN] | – | > 2 | 54.7 | 45% | 54.3 | 45.3% | ≤ 0.25 | ≤ 0.25 | 95 | 4.9% | 94.6 | 5% | –
